Results: patent publication US9387230B2, “Methods to treat cancer using cyclosporine and cyclosporine derivatives” (priority 2011, dated 2016)

Assays:
[1] = tested on: MCF10A wild type (WT) and PTEN knockout (PT−/−) cells; assay: crystal violet cell growth, 96 hours after treatment; assay type: cell-based
Method: MCF10A wild type (WT) and PTEN knockout (PT−/−) cells were seeded into 48-well plate with density of 4000 cells/well. The next day, the growth medium was changed to a medium containing Tacrolimus. Medium containing 0.1% DMSO was used as negative control. Ninety-six (96) hours after treatment, the cells were stained with crystal violet for cell growth. The cell growth of negative control group is set as 100%.
The next day, the growth medium was changed to a medium containing CsA (FIG. 9A) or an analog as depicted in each panel in FIG. 9B-D. Medium containing 0.1% DMSO was used as negative control. Ninety-six (96) hours after treatment, the cells were stained with crystal violet for cell growth. The cell growth of negative control group is set as 100%.
Medium containing 0.1% DMSO was used as negative control. Ninety-six (96) hours after treatment, the cells were stained with crystal violet and measured for cell growth. Cell growth of the negative control group is set as 100%.
MCF10A wild type (WT) and PTEN knockout (PT−/−) cells were seeded into 48-well plate with density of 4000 cells/well. The next day, the growth medium was changed to medium containing a compound, CsA or its analogs of Formula III-VIII. Medium containing 0.1% DMSO, was used as a negative control. Ninety six (96) hours after treatment, the cells were stained with crystal violet for cell growth. The cell growth of negative control group was set as 100%.
MCF10A wild type (WT) and PTEN knockout (PT−/−) cells were seeded into 48-well plates at a density of 4000 cells/well. […] Medium containing 0.1% DMSO was used as negative control. Ninety-six (96) hours after treatment, the cells were stained with crystal violet and measured for cell growth. Cell growth of the negative control group was set as 100% (FIG. 10A).

MDA-MB-468 cells (PT−/−) = assay: crystal violet cell growth, seven days after treatment; assay type: cell-based; settings: MDA-MB-468, seven days; FIG. 10B
Method: (§1) The next day, the growth medium was changed to medium containing CsA and NIM-811. Medium containing 0.1% DMSO was used as negative control. The medium was replenished once. Seven days after treatment, the cells were stained with crystal violet and measured for cell growth. Cell growth of the negative control group is set as 100%.
as §1, with “MDA-MB-468 cells (PT−/−) were seeded into 48-well plates at a density of 5000 cells/well. The next” for “The next”, “set as 100% (FIG. 10B).” for “set as 100%.”

Structure (SMILES)	differential inhibition of PT−/− MCF10A cells vs. isogenic wild type cells, compared to CsA ([1]; 96 hours, FIG. 10A)	cell growth inhibition activity compared to CsA (MDA-MB-468 cells (PT−/−))	preferential killing of PTEN null cells ([1]; MCF10A WT vs PT−/−, FIG. 8)	inhibition of cancer cells ([1]; physiologic dosing, FIG. 8)
C/C=C/C[C@@H](C)[C@@H](O)[C@H]1C(=O)N[C@@H](CC)C(=O)N(C)CC(=O)N(C)[C@@H]([C@@H](C)CC)C(=O)N[C@@H](C(C)C)C(=O)N(C)[C@@H](CC(C)C)C(=O)N[C@@H](C)C(=O)N[C@H](C)C(=O)N(C)[C@@H](CC(C)C)C(=O)N(C)[C@@H](CC(C)C)C(=O)N(C)[C@@H](C(C)C)C(=O)N1C [NIM-811]	increased activity compared to CsA	better cell growth inhibition activity compared to CsA	–	–
C=CC[C@@H]1/C=C(\C)C[C@H](C)C[C@H](OC)[C@H]2O[C@@](O)(C(=O)C(=O)N3CCCC[C@H]3C(=O)O[C@H](/C(C)=C/[C@@H]3CC[C@@H](O)[C@H](OC)C3)[C@H](C)[C@@H](O)CC1=O)[C@H](C)C[C@@H]2OC [tacrolimus]	–	–	does not preferentially kill PTEN null cells	does not inhibit cancer cells at physiologic dosing
